From patent publication US7786141B2 (Vertex Pharmaceuticals Incorporated, priority 2004, dated 2010)

What was measured:
[1] = biological target: T1, M4 muscarinic receptor (Homo sapiens, UniProt P08173); test: Functional mobilization of intracellular calcium (FLIPR) in M4-CHO cells; assay type: cell-based; conditions: Table 4; for Emax: 100% efficacy is the maximum response obtained with the Carbachol control; for M4 Activity: M4 receptor, calcium mobilization (FLIPR)
T1 construct: expressed in transfected cells; host or cells: CHO (M4-CHO)
T1 sequence (P08173 1-479): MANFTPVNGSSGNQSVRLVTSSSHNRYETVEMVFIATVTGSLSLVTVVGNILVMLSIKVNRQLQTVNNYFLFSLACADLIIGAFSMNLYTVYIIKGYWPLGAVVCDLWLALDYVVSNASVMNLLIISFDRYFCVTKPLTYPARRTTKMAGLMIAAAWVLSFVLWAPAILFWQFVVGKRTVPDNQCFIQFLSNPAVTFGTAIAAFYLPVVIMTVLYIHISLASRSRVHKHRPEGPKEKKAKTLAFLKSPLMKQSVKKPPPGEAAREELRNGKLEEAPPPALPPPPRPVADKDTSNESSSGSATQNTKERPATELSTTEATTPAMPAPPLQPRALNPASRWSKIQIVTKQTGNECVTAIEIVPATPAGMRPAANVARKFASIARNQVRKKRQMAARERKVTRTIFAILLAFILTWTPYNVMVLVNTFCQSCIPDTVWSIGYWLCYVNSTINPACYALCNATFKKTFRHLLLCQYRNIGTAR
Procedure, shortened: (§1)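 Measured via Fluo-3 fluorescence on a FLIPR, CHO cells with either muscarinic subtype received compound in 0.5% DMSO. Antagonism was assessed after 15 min pre-incubation followed by carbachol at each subtype's EC80; agonism from compound addition alone.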

[2] = biological target: T2, M1 muscarinic receptor (Homo sapiens, UniProt P11229); test: Functional mobilization of intracellular calcium (FLIPR) in M1-CHO cells; assay type: cell-based; conditions: Table 4; for Emax: 100% efficacy is the maximum response obtained with the Carbachol control; for M1 Activity: M1 receptor, calcium mobilization (FLIPR)
T2 construct: expressed in transfected cells; host or cells: CHO (M1-CHO)
T2 sequence (P11229 1-460): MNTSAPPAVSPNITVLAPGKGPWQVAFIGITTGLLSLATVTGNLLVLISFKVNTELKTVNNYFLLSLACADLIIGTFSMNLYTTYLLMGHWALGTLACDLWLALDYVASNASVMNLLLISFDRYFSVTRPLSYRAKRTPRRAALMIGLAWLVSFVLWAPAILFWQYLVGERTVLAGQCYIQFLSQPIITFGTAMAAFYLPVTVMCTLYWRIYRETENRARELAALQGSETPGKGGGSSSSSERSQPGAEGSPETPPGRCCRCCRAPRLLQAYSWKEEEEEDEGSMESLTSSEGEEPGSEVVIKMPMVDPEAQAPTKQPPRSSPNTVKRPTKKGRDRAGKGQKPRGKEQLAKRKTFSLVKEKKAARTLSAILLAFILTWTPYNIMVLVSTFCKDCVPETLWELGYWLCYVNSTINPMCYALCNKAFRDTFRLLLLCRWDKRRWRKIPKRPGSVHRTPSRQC
Procedure, shortened: as §1

Row | Structure (SMILES) | Emax [1] | M4 Activity [1] | Emax [2] | M1 Activity [2]
1 | CCOC(=O)N1CCC(N2CCC3(CC2)CN(C(=O)N2CCOCC2)c2ccccc23)CC1 [compound 903] | 25 to 100% | xxx (activity was measured to be less than 2.0 μM) | 25 to 100% | xx (activity was measured to be between 2.0 μM and 5.0 μM)
2 | O=C(O)C1CC2(CCN(C3CC4CCC3C4)CC2)c2ccccc21 (stereo not shown) [compound 904] | < 25% | x (activity was measured to be greater than 5.0 μM) | < 25% | x (activity was measured to be greater than 5.0 μM)
3 | CCOC(=O)N1CCC(N2CCC3(CC2)CN(c2cncnc2)c2ccccc23)CC1 [compound 905] | 25 to 100% | xxx (activity was measured to be less than 2.0 μM) | 25 to 100% | xxx (activity was measured to be less than 2.0 μM)
4 | CCOC(=O)N1CCC(N2CCC3(CC2)CN(C(C)=O)c2c(-c4cccc(C)c4)cccc23)CC1 [compound 907] | < 25% | x (activity was measured to be greater than 5.0 μM) | 25 to 100% | x (activity was measured to be greater than 5.0 μM)
5 | CCOC(=O)N1CCC(N2CCC3(CC2)CN(c2ccc(OC)cc2)c2ccc(F)cc23)CC1 [compound 908] | 25 to 100% | xxx (activity was measured to be less than 2.0 μM) | 25 to 100% | xxx (activity was measured to be less than 2.0 μM)
6 | CCCOC(=O)N1CCC(N2CCC3(CC2)CN(C(C)=O)c2ccccc23)CC1 [compound 910] | < 25% | xx (activity was measured to be between 2.0 μM and 5.0 μM) | 25 to 100% | xxx (activity was measured to be less than 2.0 μM)
7 | CCOC(=O)N1CCC(N2CCC3(CC2)CN(C(C)=O)c2c(-c4ccccc4C)cccc23)CC1 [compound 911] | < 25% | x (activity was measured to be greater than 5.0 μM) | < 25% | x (activity was measured to be greater than 5.0 μM)
8 | CC(=O)N[C@H]1CCC2(CCN(C3CCN(C(=O)OC(C)(C)C)CC3)CC2)c2ccccc21 [compound 912] | < 25% | x (activity was measured to be greater than 5.0 μM) | 25 to 100% | xxx (activity was measured to be less than 2.0 μM)
9 | CC(=O)N1CC2(CCN(C[C@@H]3CCN(c4cnccn4)C3)CC2)c2c(C)cccc21 [compound 913] | < 25% | x (activity was measured to be greater than 5.0 μM) | 25 to 100% | x (activity was measured to be greater than 5.0 μM)
10 | CN(C)C(=O)N1CC2(CCN(C3CCN(c4cnc5ccccc5n4)CC3)CC2)c2cc(F)ccc21 [compound 914] | 25 to 100% | xxx (activity was measured to be less than 2.0 μM) | 25 to 100% | xxx (activity was measured to be less than 2.0 μM)
11 | O=C1CC2(CCN(CC3CC4C=CC3C4)CC2)c2ccc(Cl)cc21 (stereo not shown) [compound 915] | 25 to 100% | x (activity was measured to be greater than 5.0 μM) | 25 to 100% | x (activity was measured to be greater than 5.0 μM)
12 | CC(=O)N1CC2(CCN(C3CCC3)CC2)c2cc(F)ccc21 [compound 916] | < 25% | x (activity was measured to be greater than 5.0 μM) | < 25% | x (activity was measured to be greater than 5.0 μM)
13 | COc1ccc(C(=O)N2CCC(N3CCC4(CC3)CN(C(=O)N(C)C)c3ccc(F)cc34)CC2)cc1 [compound 917] | < 25% | x (activity was measured to be greater than 5.0 μM) | < 25% | x (activity was measured to be greater than 5.0 μM)
14 | CCOC(=O)N1CCC(N2CCC3(CC2)CN(C(C)=O)c2c(C4CCCC4)cccc23)CC1 [compound 918] | < 25% | x (activity was measured to be greater than 5.0 μM) | 25 to 100% | x (activity was measured to be greater than 5.0 μM)
15 | CC(C)C1CCC(N2CCC3(CC2)CC(C(=O)O)c2ccccc23)CC1 (stereo not shown) [compound 919] | < 25% | x (activity was measured to be greater than 5.0 μM) | < 25% | x (activity was measured to be greater than 5.0 μM)
16 | CN(C)C(=O)N1CC2(CCN(C3CCCN(C(=O)OCC(F)F)CC3)CC2)c2cc(F)ccc21 (stereo not shown) [compound 920] | 25 to 100% | xxx (activity was measured to be less than 2.0 μM) | 25 to 100% | xxx (activity was measured to be less than 2.0 μM)
17 | CC(F)CC(=O)N1CCC(N2CCC3(CC2)CN(C(=O)N(C)C)c2ccc(F)cc23)CC1 (stereo not shown) [compound 921] | < 25% | x (activity was measured to be greater than 5.0 μM) | 25 to 100% | x (activity was measured to be greater than 5.0 μM)
18 | CC(=O)NC1CC2(CCN(C3CCCC3)CC2)c2ccccc21 (stereo not shown) [compound 922] | 25 to 100% | x (activity was measured to be greater than 5.0 μM) | 25 to 100% | x (activity was measured to be greater than 5.0 μM)
19 | COC(=O)N1CC[C@@H](CN2CCC3(CC2)CN(C(C)=O)c2ccccc23)C1 [compound 923] | 25 to 100% | xxx (activity was measured to be less than 2.0 μM) | 25 to 100% | xx (activity was measured to be between 2.0 μM and 5.0 μM)
20 | COCCN1CC2(CCN(C3CCCCC3)CC2)c2cc(F)ccc21 [compound 925] | 25 to 100% | xxx (activity was measured to be less than 2.0 μM) | 25 to 100% | xxx (activity was measured to be less than 2.0 μM)
21 | CCOC(=O)C1CC1CN1CCC2(CC1)C[C@H](NC(C)=O)c1ccccc12 (stereo partly shown) [compound 926] | < 25% | x (activity was measured to be greater than 5.0 μM) | 25 to 100% | x (activity was measured to be greater than 5.0 μM)
22 | CCOC(=O)N1C2CCC1CC(N1CCC3(C[C@H](NC(C)=O)c4cc(F)ccc43)C1)C2 (stereo partly shown) [compound 928] | 25 to 100% | xxx (activity was measured to be less than 2.0 μM) | 25 to 100% | xxx (activity was measured to be less than 2.0 μM)
23 | CC#CCOC(=O)N1CC[C@@H](CN2CCC3(CC2)CN(C(C)=O)c2cccc(C)c23)C1 [compound 929] | 25 to 100% | xxx (activity was measured to be less than 2.0 μM) | 25 to 100% | xxx (activity was measured to be less than 2.0 μM)
24 | CCOC(=O)N1CCC(N2CCC3(CC2)CN(C(C)=O)c2c(C4=CCCC4)cccc23)CC1 [compound 930] | < 25% | x (activity was measured to be greater than 5.0 μM) | < 25% | x (activity was measured to be greater than 5.0 μM)
25 | COc1cc2c(cc1OC)C1(CCN(CC3CCCCC3)CC1)C[C@@H]2N(C(C)=O)[C@@H](C)c1ccccc1 [compound 931] | < 25% | x (activity was measured to be greater than 5.0 μM) | < 25% | x (activity was measured to be greater than 5.0 μM)
26 | CC(=O)N1CC2(CCN(C3CCN(C(=O)OC4CCOC4)CC3)CC2)c2ccccc21 (stereo not shown) [compound 932] | < 25% | x (activity was measured to be greater than 5.0 μM) | 25 to 100% | x (activity was measured to be greater than 5.0 μM)
27 | Cc1ccc2c(c1)C1(CCN(C3CC4CCC3C4)CC1)CN2C(=O)c1ccccc1 (stereo not shown) [compound 933] | < 25% | x (activity was measured to be greater than 5.0 μM) | < 25% | x (activity was measured to be greater than 5.0 μM)
28 | CC(=O)N[C@H]1CC2(CCN(CC3CCCC3)CC2)c2ccccc21 [compound 934] | 25 to 100% | xxx (activity was measured to be less than 2.0 μM) | 25 to 100% | xx (activity was measured to be between 2.0 μM and 5.0 μM)
